Results as given in US20100240656A1, “COMPOUNDS AS HSP90 INHIBITORS” (ORYZON GENOMICS, S.A., priority 2007, published 2010).
pEC50: −log10 of the molar value.

How the values were obtained:
WI-38 = assay: Cell proliferation by MTT method, WI-38; assay type: cell-based; conditions: Homo sapiens
Experimental: The objective of this study was to determine the influence of the compounds on cell proliferation of K-562, A-549, MCF-7, HeLa, WI-38 by MTT method. The compounds were tested over a three-fold dilution series in triplicate for the determination of EC50 of their influence on cell proliferation.
The assay is based on the cleavage of the yellow tetrazolium salt MTT into purple formazan by metabolically active cells. The MTT formazan crystals are insoluble in aqueous solution, but may be solubilized by adding the 10% SDS, then incubating the plates overnight in a humidified atmosphere (e.g., 37° C., 5% CO2). The solubilized formazan product can be photometrically quantitated using Tecan reader. An increase in the number of living cells results in an increase of total metabolic activity, which leads to a stronger color formation.
EC50 values are defined as the compound concentration at which 50% of reaction product is formed.
Test compounds were dissolved to 10 mM in 100% DMSO.
In the day of the experiment cells were seeded into all wells of 96-well plates. Serial dilution of compounds was performed in a separate 96-well plate at 20 times final assay concentration in cell culture medium (DMEM with 10% Fetal Bovine Serum). 5 μl of compound was transferred to 96-well plate containing seeded cells in cell culture medium (final total volume=100 μl). Cells were cultured in the presence of the respective test substances in the 96-well plate at 37° C. in a humidified 5% CO2 incubator for a certain period of time (24, 72 or 120 hours). Then 5 μL of thiazolyl blue tetrazolium bromide (MTT) 5 mg/mL was added to the cells and the cells were reincubated 4 hours in a humidified 5% CO2 incubator. Then 10% SDS was added into the each well. The reaction product was quantified by measuring the absorbance at 568 nm using a scanning multiwell spectrophotometer Tecan. The developed color and thereby the absorbance values directly correlate to the number of the living cells.
The data were analyzed using Microsoft Excel 2000, GraphPad Prism 3.03. […]

MCF-7 = assay: Cell growth inhibition by AlamarBlue method, MCF-7; assay type: cell-based, human; conditions: Homo sapiens, MCF7; MCF-7, 72 hours; read-out: Cell growth inhibition values (EC50) obtained with AlamarBlue method
Experimental: (§1) The human colon cancer cell line HCT-116 and the human breast cell lines MCF-7 and SKBr3 were from the American Type Culture Collection (ATCC; CCL-247, HTB-22 and HTB-30, respectively).
(§2) The HCT-116 and SKBr3 cell lines were maintained in DMEM GlutaMAX (Invitrogen) supplemented with 10% fetal calf serum and the MCF-7 cell line was maintained in RPMI1640 GlutaMAX (Invitrogen) containing 1 mM sodium pyruvate and 10% fetal calf serum. Cells were grown in a humidified incubator at 37° C. in 5% CO2
(§3) Cells were plated in 96-well plates (Costar, 3596) at a density of 6000 cells/well in 50 μL medium 24 h before addition of the compounds. Compounds were then added in 8 concentrations, each in triplicate (dilution series of 1 to 3). To do so, a compound-dilution plate at 200× the screening concentrations was prepared in DMSO 100% (Sigma, 154938). Then, 1.7 μL of the 200× diluted compounds were transferred to a new plate and 170 μL of media were added and mixed with the pipette (plate at 2×). Columns 11 and 12 of this plate (controls) were filled with 1% DMSO in cell media (i.e. 1.7 μL DMSO and 170 μL cell media). Finally, 50 μL of this intermediate plate at 2× were transferred to the plate containing the seeded cells and slowly shaken manually. Cells were grown as described above. AlamarBlue viability assay (Biosource, Invitrogen, DAL1100) was performed 72 hours later following manufacturer's protocol. In brief, AlamarBlue diluted in media was added to cells to have a 5% solution (a 2× solution was prepared in media and 100 μL of this solution were transferred to each well, i.e. final volume of 200 μL). Cells were incubated at 37° C., 3 hours and at room temperature for an additional 30 min. Cells with no compound and, cells with no compound and lysed with triton X-100 (30 μL/well added 10 min before treatment with AlamarBlue) were used as controls (6 replicates of each). Fluorescence was monitored at 530 nm excitation and 590 nm emission wavelengths. Results were quantified using ELx800 Universal Microplate Reader (Bio-Tek Instruments, Inc.). EC50 were calculated as the dose of compound required to inhibit cell growth by 50%.

SKBr3 = assay: Cell growth inhibition by AlamarBlue method, SKBr3; assay type: cell-based; conditions: Homo sapiens, SK-BR-3; SKBr3, 72 hours; read-out: Cell growth inhibition values (EC50) obtained with AlamarBlue method
Experimental: as §1, §2, §3

NCCCCCn1c(Sc2cc3c(cc2I)OCO3)nc(C(N)=O)c1N [Example 6, 5-amino-1-(5-amino-pentyl)-2-(6-iodo-benzo[1,3]dioxol-5-ylsulfanyl)-1H-imidazole-4-carboxamide]
pEC50 (WI-38; 24 h, WI-38, incubation 1 day): < 4.00 | pEC50 (WI-38; 72 h, WI-38, incubation 3 days): 4.56 | pEC50 (WI-38; 120 h, WI-38, incubation 5 days): 4.71 | pEC50 (MCF-7): 4.80

CCCCn1c(Sc2cc3c(cc2I)OCO3)nc(C(N)=O)c1N [Example 10, 5-amino-1-butyl-2-(6-iodo-benzo[1,3]dioxol-5-ylsulfanyl)-1H-imidazole-4-carboxamide]
pEC50 (SKBr3): 4.52 to 4.62
